For the assay, the target named is T1, JAK3 (recombinant human kinase domain; h-jak3(810-1124)) (Homo sapiens, UniProt P52333).
T1 construct: h-jak3(810- 1124)-sf9-c; made in house; host or cells: Sf9 insect cells
T1 sequence (P52333 810-1124): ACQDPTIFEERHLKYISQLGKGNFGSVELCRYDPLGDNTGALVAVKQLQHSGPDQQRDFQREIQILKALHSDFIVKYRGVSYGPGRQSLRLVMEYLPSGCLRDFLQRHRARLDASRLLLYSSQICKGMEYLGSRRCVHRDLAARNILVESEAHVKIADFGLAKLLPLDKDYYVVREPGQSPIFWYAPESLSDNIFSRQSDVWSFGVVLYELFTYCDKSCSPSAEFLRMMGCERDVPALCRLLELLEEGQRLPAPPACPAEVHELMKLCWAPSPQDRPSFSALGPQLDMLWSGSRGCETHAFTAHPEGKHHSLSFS
As to the kind of experiment: Determination of IC50 of Janus Kinase (JAK) inhibition: JAK3, radioactive end-point assay with 33P-ATP. Type of assay: biochemical. Particulars: JAK3 kinase domain; ATP 1.5 uM, peptide 50 uM, 20 minutes, room temperature, 10% DMSO; read-out: Ic50 h-jak3(810-1124)-sf9-c:no additive.
In the case of `CC(C)(O)C(CCO)NC(=O)c1c[nH]c2ncc(C3CC3)nc12` (stereo not shown) [Example I-17, 2-Cyclopropyl-5H-pyrrolo[2,3-b]pyrazine-7-carboxylic acid [2-hydroxy-1-(2-hydroxy-ethyl)-2-methyl-propyl]-amide], the IC50 was found to be 84.5 nM.

As for `COc1ccccc1Oc1cnc2[nH]cc(C(=O)NC(C)C)c2n1` [Example I-256, 2-(2-Methoxy-phenoxy)-5H-pyrrolo[2,3-b]pyrazine-7-carboxylic acid isopropylamide], the IC50 came to 931 nM.

For the molecule `C[C@@H](NC(=O)c1c[nH]c2ncc(C3CC3)nc12)C1CCCCC1` [Example I-60, 2-Cyclopropyl-5H-pyrrolo[2,3-b]pyrazine-7-carboxylic acid ((R)-1-cyclohexyl-ethyl)-amide], the IC50 came out at 15 nM.

For the molecule `CC(C)(CNC(=O)c1c[nH]c2ncc(C3CC3)nc12)CS(C)(=O)=O` [Example I-98, 2-Cyclopropyl-5H-pyrrolo[2,3-b]pyrazine-7-carboxylic acid (3-methanesulfonyl-2,2-dimethyl-propyl)-amide], the IC50 is 11.1 nM.

With `CCNC(=O)c1c[nH]c2ncc(Oc3ccc4c(c3)[C@H](NS(C)(=O)=O)CC4)nc12` [Example I-270, 2-((R)-3-Methanesulfonylamino-indan-5-yloxy)-5H-pyrrolo[2,3-b]pyrazine-7-carboxylic acid ethylamide], the 50% inhibitory concentration (IC50) was 740 nM.

As to `COc1cccc(CNC(=O)c2ccc(-c3cnc4[nH]cc(C(=O)N[C@@H](C)C(C)(C)C)c4n3)s2)c1` [Example I-206, 2-[5-(3-Methoxy-benzylcarbamoyl)-thiophen-2-yl]-5H-pyrrolo[2,3-b]pyrazine-7-carboxylic acid ((S)-1,2,2-trimethyl-propyl)-amide], the IC50 stood at 0.32 nM.

Regarding `C[C@@H]1C[C@H]1c1cnc2[nH]cc(C(=O)NCC(C)(C)CO)c2n1` [Example I-43, 2-((1R,2R)-2-Methyl-cyclopropyl)-5H-pyrrolo[2,3-b]pyrazine-7-carboxylic acid (3-hydroxy-2,2-dimethyl-propyl)-amide], the IC50 was 121 nM.

On to `CCNC(=O)c1c[nH]c2ncc(Oc3ccc4c(c3)CCCC4)nc12` [Example I-260, 2-(5,6,7,8-Tetrahydro-naphthalen-2-yloxy)-5H-pyrrolo[2,3-b]pyrazine-7-carboxylic acid ethylamide], for which the half-maximal inhibitory concentration (IC50) amounted to 1530 nM.

For `COCC(C)NC(=O)c1c[nH]c2ncc(C3CC3)nc12` (stereo not shown) [Example I-9, 2-Cyclopropyl-5H-pyrrolo[2,3-b]pyrazine-7-carboxylic acid (2-methoxy-1-methyl-ethyl)-amide], the IC50 came out at 19.6 nM.

`CCNC(=O)c1c[nH]c2ncc(Oc3ccccc3)nc12` [Example I-131, 2-Phenoxy-5H-pyrrolo[2,3-b]pyrazine-7-carboxylic acid ethylamide]: the IC50 stood at 1030 nM.

On to `C[C@H](NC(=O)c1c[nH]c2ncc(-c3ccc(C(F)(F)F)cc3)nc12)C(C)(C)C` [Example I-143, 2-(4-Trifluoromethyl-phenyl)-5H-pyrrolo[2,3-b]pyrazine-7-carboxylic acid ((S)-1,2,2-trimethyl-propyl)-amide], for which the IC50 worked out at 6.28 nM.

For the molecule `C[C@H](NC(=O)c1c[nH]c2ncc(C3CC3)nc12)[C@@](C)(O)C(F)(F)F` [Example I-53, 2-Cyclopropyl-5H-pyrrolo[2,3-b]pyrazine-7-carboxylic acid ((1S,2R)-3,3,3-trifluoro-2-hydroxy-1,2-dimethyl-propyl)-amide], the IC50 was found to be 8.38 nM.

Consider `CCC(NC(=O)c1c[nH]c2ncc(C3CC3)nc12)C1CCCCC1` (stereo not shown) [Example I-75, 2-Cyclopropyl-5H-pyrrolo[2,3-b]pyrazine-7-carboxylic acid (1-cyclohexyl-propyl)-amide], for which the IC50 turned out to be 68.7 nM.

As for `COc1cccc(Oc2cnc3[nH]cc(C(=O)NC(C)C)c3n2)c1` [Example I-229, 2-(3-Methoxy-phenoxy)-5H-pyrrolo[2,3-b]pyrazine-7-carboxylic acid isopropylamide], the IC50 came out at 184 nM.

For `C[C@H](NC(=O)c1c[nH]c2ncc(Oc3ccc(F)cc3F)nc12)C(C)(C)C` [Example I-133, 2-(2,4-Difluoro-phenoxy)-5H-pyrrolo[2,3-b]pyrazine-7-carboxylic acid ((S)-1,2,2-trimethyl-propyl)-amide], the IC50 came to 154 nM.

In the case of `C[C@H](NC(=O)c1c[nH]c2ncc(Oc3ccccc3)nc12)C1CCCCC1` [Example I-123, 2-Phenoxy-5H-pyrrolo[2,3-b]pyrazine-7-carboxylic acid ((S)-1-cyclohexyl-ethyl)-amide], the IC50 was found to be 1330 nM.

Take `C[C@H](NC(=O)c1c[nH]c2ncc(-c3ccccn3)nc12)C(C)(C)C` [Example I-72, 2-Pyridin-2-yl-5H-pyrrolo[2,3-b]pyrazine-7-carboxylic acid ((S)-1,2,2-trimethyl-propyl)-amide]: the IC50 was found to be 10 nM.

For `CC(C)NC(=O)c1c[nH]c2ncc(Oc3ccc4c(c3)CCCC4)nc12` [Example I-240, 2-(5,6,7,8-Tetrahydro-naphthalen-2-yloxy)-5H-pyrrolo[2,3-b]pyrazine-7-carboxylic acid isopropylamide], the IC50 came out at 315 nM.

`CC(C)NC(=O)c1c[nH]c2ncc(Oc3ccc4c(c3)C(O)CC4)nc12` (stereo not shown) [Example I-293, 2-(3-Hydroxy-indan-5-yloxy)-5H-pyrrolo[2,3-b]pyrazine-7-carboxylic acid isopropylamide]: the IC50 amounted to 162 nM.

Consider `CCn1cc(-c2cnc3[nH]cc(C(=O)N[C@@H](C)C4(O)CCCC4)c3n2)cn1` [Example I-138, 2-(1-Ethyl-1H-pyrazol-4-yl)-5H-pyrrolo[2,3-b]pyrazine-7-carboxylic acid [(S)-1-(1-hydroxy-cyclopentyl)-ethyl]-amide], for which the IC50 was 5.01 nM.

For the molecule `CC(NC(=O)c1ccc(-c2cnc3[nH]cc(C(=O)N[C@@H](C)C(C)(C)C)c3n2)s1)c1cccnc1` (stereo partly drawn) [Example I-171, 2-[5-(1-Pyridin-3-yl-ethylcarbamoyl)-thiophen-2-yl]-5H-pyrrolo[2,3-b]pyrazine-7-carboxylic acid ((S)-1,2,2-trimethyl-propyl)-amide], the IC50 was determined as 0.23 nM.

In the case of `CC(C)(O)[C@@H](NC(=O)c1c[nH]c2ncc(C3CC3)nc12)C1CC1` [Example I-73, 2-Cyclopropyl-5H-pyrrolo[2,3-b]pyrazine-7-carboxylic acid ((S)-1-cyclopropyl-2-hydroxy-2-methyl-propyl)-amide], the IC50 amounted to 92.4 nM.

For `CCn1cc(-c2cnc3[nH]cc(C(=O)N[C@H](C)C(C)(C)O)c3n2)cn1` [Example I-99, 2-(1-Ethyl-1H-pyrazol-4-yl)-5H-pyrrolo[2,3-b]pyrazine-7-carboxylic acid ((R)-2-hydroxy-1,2-dimethyl-propyl)-amide], the IC50 stood at 6.61 nM.

For `C[C@H](NC(=O)c1c[nH]c2ncc(-c3ccc(C(=O)NC4CCOCC4)s3)nc12)C(C)(C)C` [Example I-225, 2-[5-(Tetrahydro-pyran-4-ylcarbamoyl)-thiophen-2-yl]-5H-pyrrolo[2,3-b]pyrazine-7-carboxylic acid ((S)-1,2,2-trimethyl-propyl)-amide], the half-inhibitory concentration (IC50) was determined as 0.19 nM.

Turning to `C=C(C)c1cnc2[nH]cc(C(=O)N[C@@H](C)C(C)(C)O)c2n1` [Example I-3, 2-Isopropenyl-5H-pyrrolo[2,3-b]pyrazine-7-carboxylic acid ((S)-2-hydroxy-1,2-dimethyl-propyl)-amide], the IC50 is 12.2 nM.

A word on the IC50: it is the point on the concentration scale where inhibition reaches its midpoint.

The record behind these values is patent US20140155376A1, “PYRROLOPYRAZINE KINASE INHIBITORS” (Hoffmann-La Roche Inc., priority 2010, published 2014).
